Measurements from patent US20230025435A1, “COMPOSITIONS AND METHODS FOR INCREASING CELLULAR VITALITY AND LONGEVITY AND DECREASING MOLECULAR AGEING” (JUVN3 Holdings, LLC, priority 2020, published 2023).

What was measured:
Format in all cases: cell-based
C2C12 cells [1] = assay: Autophagy flux (LC3II/I ratio) in C2C12 cells co-incubated with H2O2 (FIG. 6A); conditions: 24 hours with concomitant 400 uM H2O2, BHB 30 ug/mL, CBD 5 ug/mL, selenium 2 ug/mL
Method: (§1) Treatments and cells. 6-hour and 24-hour cell culture treatments were with one of the following compounds: 1. Control or “vehicle” (DMSO+phosphate-buffered saline only); 2. Niagen® (nicotinamide riboside (NR)(5 μg/mL); 3. BHB (beta hydroxybutyrate) (30 ug/mL); 4. CBD (cannabidiol) (5 ug/mL); 5. Olive leaf (5 ug/mL); 6. Dynamine (1 ug/mL); 7. Selenium (2 ug/mL); 8. Tributyrin (5 ug/mL)
(§2) Treatment materials and methods. C2C12 cells were treated with compounds 1-8 as listed above for 6 hours without hydrogen peroxide (H2O2) (termed “unperturbed cells” throughout); or cells were treated with compounds 1-8 above for 24 hours with a concomitant 400 uM hydrogen peroxide (H2O2).
The C2C12 line resembles mature muscle cells given that they are multinucleated and are past the rapid growth/proliferation phase.
Autophagy flux (or activity) was assessed by assaying the LC3II/I ratio. This assay has been deemed the “gold standard” in autophagy monitoring (see e.g., Autophagy, 2007 November-December; 3(6):542-5).

C2C12 cells [2] = assay: Total antioxidant capacity (Trolox equivalent antioxidant capacity, TEAC) in C2C12 cells with H2O2 (FIG. 5B); conditions: 24 hours with concomitant 400 uM H2O2, selenium 2 ug/mL, tributyrin 5 ug/mL
Method: Treatments and cells. 6-hour and 24-hour cell culture treatments were with one of the following compounds: 1. Control or “vehicle” (DMSO+phosphate-buffered saline only); 2. […]® (nicotinamide riboside (NR)(5 μg/mL); 3. BHB (beta hydroxybutyrate) (30 ug/mL); 4. CBD (cannabidiol) (5 ug/mL); 5. Olive leaf (5 ug/mL); 6. Dynamine (1 ug/mL); 7. […] Tributyrin (5 ug/mL) Treatment materials and methods. C2C12 cells were treated with compounds 1-8 as listed above for 6 hours without hydrogen peroxide (H2O2) (termed “unperturbed cells” throughout); or cells were treated with compounds 1-8 above for 24 hours with a concomitant 400 uM hydrogen peroxide (H2O2). Total antioxidant capacity was assessed using a Trolox equivalent antioxidant capacity (TEAC) assay.

C2C12 cells [3] = assay: Cellular oxidative stress (4HNE assay) in C2C12 cells with H2O2 (FIG. 6C); conditions: 24 hours with concomitant 400 uM H2O2, BHB 30 ug/mL
Method: as §1, §2
Oxidative stress was assessed using the 4HNE assay which is a product of cellular lipid oxidation (see e.g., Am J Physiol Cell Physiol. 2016 Oct. 1; 311(4): C537-C543).

Row | Compound | autophagy (LC3II/I ratio) (C2C12 cells [1]) | total antioxidant capacity (Trolox) (C2C12 cells [2]) | total antioxidant capacity (Trolox) (C2C12 cells [2]; listed as Selenium) | total antioxidant capacity (Trolox) (C2C12 cells [2]; listed as Tributyrin) | cellular oxidative stress (4HNE) (C2C12 cells [3])
1 | [Se] [selenium, Selenium] | increased autophagy | increase (e.g., restore) total antioxidant activity | increase or restore antioxidant capacity | – | –
2 | C=C(C)[C@@H]1CCC(C)=C[C@H]1c1c(O)cc(CCCCC)cc1O [CBD, cannabidiol] | increased autophagy | – | – | – | –
3 | CCCC(=O)OCC(COC(=O)CCC)OC(=O)CCC [tributyrin, Tributyrin] | – | increase (e.g., restore) total antioxidant activity | – | increase or restore antioxidant capacity | –
4 | CC(O)CC(=O)O (stereo not drawn) [BHB, beta hydroxybutyrate] | increased autophagy | – | – | – | decrease cellular oxidative stress
